Usually Emax stands for the size of the effect at its maximum, as opposed to the concentration needed. In general, EC50 refers to the concentration at which the effect is half-maximal.

Positions of bridges follow the written chain, without caps; N, C: chain ends. Non-standard residues stand in square brackets, D forms with d. Residues, ends and D or L forms follow the SMILES beside them. hArg = N=C(N)NCCCC[C@H](N)C(=O)O

Experiment [1] has as its target T1, recombinant full-length P1R (Homo sapiens, UniProt Q03431).
T1 construct: expressed in transfected cells
T1 sequence (Q03431 27-593): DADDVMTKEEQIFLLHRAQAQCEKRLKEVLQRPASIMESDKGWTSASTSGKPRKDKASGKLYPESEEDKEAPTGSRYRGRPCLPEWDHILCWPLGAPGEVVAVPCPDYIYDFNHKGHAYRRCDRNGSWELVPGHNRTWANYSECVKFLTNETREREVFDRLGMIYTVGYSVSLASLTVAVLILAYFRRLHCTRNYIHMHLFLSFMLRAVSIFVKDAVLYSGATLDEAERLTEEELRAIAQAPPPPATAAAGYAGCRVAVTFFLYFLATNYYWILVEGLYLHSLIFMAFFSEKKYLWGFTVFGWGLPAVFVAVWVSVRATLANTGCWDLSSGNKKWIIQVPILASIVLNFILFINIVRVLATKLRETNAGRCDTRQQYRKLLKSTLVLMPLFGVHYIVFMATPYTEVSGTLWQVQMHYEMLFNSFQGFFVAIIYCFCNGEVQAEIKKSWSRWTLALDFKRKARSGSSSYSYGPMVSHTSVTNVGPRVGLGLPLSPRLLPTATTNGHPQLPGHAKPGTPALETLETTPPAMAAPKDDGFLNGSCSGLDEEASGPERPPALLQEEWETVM
As to the kind of experiment: cAMP stimulation in HKRK-B28 cells. The format is cell-based. The following applies: for Emax at 1 µM: at 1×10^−6 M, percent of maximum response of PTH(1-34). The protocol: (§1) Cell Culture. The cell line HKRK-B28 (Takasu, H., et al., J. Bone Miner. Res. 14:11-20 (1999)) was derived from the porcine kidney cell line, LLC-PK1 by stable transfection with plasmid DNA encoding the full-length P1R and expresses ˜280,000 receptors per cell. These cells, as well as COS-7 cells and SaOS-2-B10 cells, were cultured at […] in T-75 flasks ([…]) in Dulbecco's modified Eagle's medium (DMEM) supplemented with fetal bovine serum (10%), penicillin G (20 units/ml), streptomycin sulfate (20 μg/ml) and amphotericin B (0.05 μg/ml) in a humidified atmosphere containing 5% CO2. Stock solutions of EGTA/trypsin and antibiotics were from GIBCO; fetal bovine serum was from Hyclone Laboratories (Logan, Utah). COS-7 cells sub-cultured in 24-well plates were transfected with plasmid DNA (200 ng per well) encoding the wild-type human P1R or truncated human P1R deleted for residues (24-181) (Shimizu, M., et al., J. Biol. Chem. 275:21836-21843 (2000)) that was purified by cesium chloride/ethidium bromide density gradient centrifugation, and FuGENE 6 transfection reagent (Roche Indianapolis Ind.) according to the manufacturer's recommended procedure. All cells, in 24-well plates, were treated with fresh media and shifted to 33° C. for 12 to 24 h prior to assay.
(§2) cAMP Stimulation. Stimulation of cells with peptide analogs was performed in 24-well plates. Cells were rinsed with 0.5 mL of binding buffer (50 mM Tris-HCl, 100 mM NaCl, 5 mM KCl, 2 mM CaCl2, 5% heat-inactivated horse serum, 0.5% fetal bovine serum, adjusted to pH 7.5 with HCl) and treated with 200 μL of cAMP assay buffer (Delbecco's modified Eagle's medium containing 2 mM 3-isobutyl-1-methylxanthine, 1 mg/mL bovine serum albumin, 35 mM Hepes-NaOH, pH 7.4) and 100 μL of binding buffer containing varying amounts of peptide analog (final volume=300 μL). The medium was removed after incubation for 30 to 60 minutes at room temperature, and the cells were frozen on dry ice, lysed with 0.5 mL 50 mM HCl, and refrozen ([…]). The cAMP content of the diluted lysate was determined by radioimmunoassay. The EC50 response values were calculated using nonlinear regression (see below).
(§3) Data Calculation. Calculations were performed using Microsoft® Excel. Nonlinear regression analyses of binding and cAMP dose-response data were performed using the four-parameter equation: yp=Min+[(Max−Min)/(1+(IC50/x)^slope)]. The Excel Solver function was utilized for parameter optimization, as described previously (Carter, P. H., et al., Endocrinology 140: 4972-4981 (1999); Bowen, W. P., and Jerman, J. C., Trends in Pharmacol. Sci. 16: 413-417 (1995)). Differences between paired data sets were statistically evaluated using a one-tailed Student's t-test, assuming unequal variances for the two sets.
The effects of installing a direct covalent linkage between the side chains of the residues at positions 6 and 10 on PTH analog function were also assessed. To do this, paired Glu^6/Lys^10 or Lys^6/Glu^10 substitutions were introduced into an otherwise non-constrained PTH(1-14) analog scaffold AlaValAlaGluIleGln LeuMetHisGlnHarAlaLysTrp-amide (SEQ. ID. NO. 11) and formed an amide bond between the carboxylate side chain group of the introduced glutamate residue and the amino side chain group of the introduced lysine residue. For controls, a portion of each Glu/Lys- or Lys/Glu-substituted PTH(1-14) analog was preserved in the non-bridged form. The four peptides: [Glu^6, Lys^10]PTH(1-14)(linear)(SEQ. ID. NO. 24), [(Glu^6,Lys^10)lac.]PTH(1-14) cyclized via a 6-10 lactam bridge)(SEQ. ID. NO. 3), [Lys^6, Glu^10]PTH(1-14)(SEQ. ID. NO. 25), and [(Lys^6, Glu^10)lac.]PTH(1-14)(SEQ. ID. NO. 26) were first compared at a single dose of 10 μM for the capacity to stimulate cAMP formulation in HKRK-B28 cells, an LLC-PK1-derived cell line that expresses the recombinant full-length P1R at a moderate level (˜280,000 receptors per cell). […]

The target of experiment [2] is T2, P1R-DelNt (truncated human P1R deleted for residues 24-181) (Homo sapiens, UniProt Q03431).
T2 construct: expressed in transfected cells; host or cells: COS-7 (transient transfection, FuGENE 6)
T2 sequence (Q03431 with tags, fused parts or gaps limits assumed): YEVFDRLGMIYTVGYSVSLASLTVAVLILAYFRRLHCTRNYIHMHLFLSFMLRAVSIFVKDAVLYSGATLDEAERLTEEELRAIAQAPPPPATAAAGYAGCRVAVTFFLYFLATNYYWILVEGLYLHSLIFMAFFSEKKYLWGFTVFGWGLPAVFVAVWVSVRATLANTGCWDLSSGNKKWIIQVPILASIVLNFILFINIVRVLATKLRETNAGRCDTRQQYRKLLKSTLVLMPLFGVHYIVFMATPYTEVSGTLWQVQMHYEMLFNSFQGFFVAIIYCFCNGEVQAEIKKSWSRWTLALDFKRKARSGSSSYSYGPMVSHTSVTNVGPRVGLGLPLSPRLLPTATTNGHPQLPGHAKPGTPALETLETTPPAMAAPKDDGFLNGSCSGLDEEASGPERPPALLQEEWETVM
Description: cAMP stimulation in COS-7 cells transiently transfected with P1R-DelNt. The format is cell-based. The following applies: for Emax: COS-7, at 1×10^−5, percent of maximum response of PTH(1-34) on P1R-WT. Here is the method: as §1, §2
Data Calculation. Calculations were performed using Microsoft® Excel. […] Differences between paired data sets were statistically evaluated using a one-tailed Student's t-test, assuming unequal variances for the two sets.
(§4) The peptide PTH(1-34)([Tyr^34]hPTH(1-34)NH2)(SEQ. ID. NO. 11) and analogs containing the indicated residues at positions 6 and/or 10 were evaluated for the capacity to stimulate cAMP accumulation in COS-7 cells transiently transfected with either the wild-type P1R(P1R-WT) or P1R-DelNt. […]

Experiment [3] has as its target T3, wild-type human P1R (Homo sapiens, UniProt Q03431).
T3 construct: expressed in transfected cells; host or cells: COS-7 (transient transfection, FuGENE 6)
T3 sequence (Q03431 27-593): T1 sequence (Q03431 27-593)
As to the kind of experiment: cAMP stimulation in COS-7 cells transiently transfected with P1R-WT. The format is cell-based. The following applies: at 1×10^−6M, percent of maximum response of PTH(1-34) on P1R-WT. Here is the method: as §1
cAMP Stimulation. Stimulation of cells with peptide analogs was performed in 24-well plates. […] The cAMP content of the diluted lysate was determined by radioimmunoassay. The EC50 response values were calculated using nonlinear regression (see below).
Data Calculation. […] Differences between paired data sets were statistically evaluated using a one-tailed Student's t-test, assuming unequal variances for the two sets.
as §4

The target of experiment [4] is T4, P1R-DelNt (Homo sapiens, UniProt Q03431).
T4 construct: expressed in transfected cells
T4 sequence (Q03431 with tags, fused parts or gaps limits assumed): T2 sequence (Q03431 with tags, fused parts or gaps limits assumed)
As to the kind of experiment: cAMP stimulation in LdelNt-2 cells. The format is cell-based. The following applies: for Emax: percent of maximum response of PTH(1-11). Here is the method: as §2, §3
The two-domain hypothesis of the PTH-P1R interaction mechanism predicts that the effects of the substitutions at positions 6 and 10 observed with the above PTH(1-11) analogs involve interactions (direct or indirect) that occur within the juxtamembrane region of the receptor. To test this hypothesis, P1R-DelNt was utilized. P1R-DeNt is a P1R construct that is deleted for most of the N domain yet which retains nearly full capacity to be expressed on the cell surface and to stimulate cAMP formation in response to N-terminal PTH analogs, and an LLC-PK1-derived cell line was herein established, LdelNt-2, which stably expresses P1R-DelNt.

The target of experiment [5] is T5, P1R (Homo sapiens, UniProt Q03431).
T5 construct: expressed in transfected cells
T5 sequence (Q03431 27-593): T1 sequence (Q03431 27-593)
As to the kind of experiment: cAMP stimulation in HKRK-B7 cells. The following applies: for Emax: cAMP response, Table 1. The format is cell-based. The protocol: as §2, §3
The functional effects of substitutions at positions 6 and 10 in PTH using a PTH(1-11) analog AlaValAlaGluIleGlnLeuMetHisGlnArg-amide as the scaffold peptide (SEQ. ID. NO. 8). The peptides were analyzed for the capacity to stimulate cAMP formation in HKRK-B7 cells, an LLC-PK1-derived cell line that expresses via stable transfection the recombinant human P1R at high density (˜950,000 receptors per cell).

Experiment [6] addresses T5, P1R. The following applies: cAMP-signaling, literature (Luck et al. 1999); cited from earlier work.

Regarding “H-SVSEIALMHNLGKHLNSMERVEWLRKKLQDVHNY-NH2 [[Ala^6]PTH(1-34)]”, the values for the Emax at 1 µM in experiment [1] and in experiment [3] were 105 ± 10% and 104 ± 2%, respectively. The Emax in experiment [2] worked out at 4.5 ± 0.9%.

Regarding H-AVAEIALMHQR-NH2 [[Ala^6]PTH(1-11)], in experiment [4], the “EC50/potency difference versus parent PTH(1-11)” value was approximately 3 fold and the Emax is 14 ± 2%. In experiment [5], the Emax amounted to 26 ± 2%.

With “H-SVSEIQLMHALGKHLNSMERVEWLRKKLQDVHNY-NH2 [[Ala^10]PTH(1-34)]”, the maximal effect (Emax) at 1 µM in experiment [1] came out at 106 ± 7%; in experiment [3], 96 ± 4%. In experiment [2], this molecule gave an Emax of 46 ± 2%.

With “H-AVAEIQLMHQR-NH2 [PTH(1-11)(SEQ. ID. NO. 8), AlaValAlaGluIleGlnLeuMetHisGlnArg-amide]”, in experiment [4], the “EC50/potency difference versus parent PTH(1-11)” value is reported as 22 fold, the “fold increase in cAMP formation/accumulation” value was determined as 55 fold and the Emax turned out to be 100 ± 2%. Besides, in experiment [4] (n=3), the “maximum cAMP response observed” value is given as 113±4 pM of cAMP per well. Further, in experiment [5], the “fold increase in cAMP formation” value is given as 75 fold and the Emax was 100 ± 3%.

As to H-AVAEIQLMHAR-NH2 [[Ala^10]PTH(1-11)], the maximum response (Emax) in experiment [4] is 79 ± 5%; in experiment [5], 88 ± 5%.

As for “H-AVAEIALMHAR-NH2 [[Ala^6, Ala^10]PTH(1-11)]”, in experiment [4], the “potency relative to [Ala^6]PTH(1-11)” value is “two-fold lower” and the Emax stood at 42 ± 5%. Moreover, in experiment [5], the “potency relative to [Ala^6]PTH(1-11)” value is on record as “two-fold greater” and the Emax came to 41 ± 2%.

`CC[C@H](C)[C@H](NC(=O)[C@H](CCC(=O)O)NC(=O)[C@H](C)NC(=O)[C@@H](NC(=O)[C@H](C)N)C(C)C)C(=O)N[C@H]1CCC(=O)NCCCC[C@@H](C(=O)N[C@@H](CCCCNC(=N)N)C(=O)N[C@@H](C)C(=O)N[C@@H](CCCCN)C(=O)N[C@@H](Cc2c[nH]c3ccccc23)C(N)=O)NC(=O)[C@H](Cc2c[nH]cn2)NC(=O)[C@H](CCSC)NC(=O)[C@H](CC(C)C)NC1=O` [[(Glu^6, Lys^10)lac.]PTH(1-14), AlaValAlaGluIleGluLeuMetHisLysHarAlaLysTrp cyclized via a 6-10 lactam bridge] (H-AVAEIELMHK[hArg]AKW-NH2; lactam 6-10): the “capacity to stimulate cAMP formation at a single dose” value in experiment [1] (10 μM) is given as “comparable to that of its linear counterpart”. Further, in experiment [1] (percent of maximum response of PTH(1-14), Table 3), the Emax was determined as 52 ± 3%.

For the molecule “H-SVSEIALMHALGKHLNSMERVEWLRKKLQDVHNY-NH2 [[Ala^6,10]PTH(1-34)]”, the maximal response (Emax) at 1 µM is 107 ± 8% in experiment [1] and 121 ± 7% in experiment [3]. In experiment [2], this molecule displayed an Emax of 44 ± 2%. Further, the “cAMP-signaling potency (in words)” value in experiment [2] (COS-7 cells expressing P1R-DelNt) is on record as “as potent as PTH(1-34)”.

As to “PTH(1-34): first 34 amino acids of PTH, literature data”, the EC50 in experiment [6] is approximately 2 nM.
